Measured values published in paper PMC3265362 (Biochemical Journal, 2008).
Where “and” joins values, the source holds several entries; their conditions need not be identical. Equal values may be shown once. One block for each molecule: values may come before it.

Key:
[1] = molecular target: T1, human QR2 (Homo sapiens, UniProt P16083); assay: ITC; format: binding; details: for ΔG / −TΔS / ΔH: single-site binding model; for ΔH: 50 mM Hepes pH 7.5, 100 mM NaCl, 1 mM TCEP
T1 sequence (P16083 1-231): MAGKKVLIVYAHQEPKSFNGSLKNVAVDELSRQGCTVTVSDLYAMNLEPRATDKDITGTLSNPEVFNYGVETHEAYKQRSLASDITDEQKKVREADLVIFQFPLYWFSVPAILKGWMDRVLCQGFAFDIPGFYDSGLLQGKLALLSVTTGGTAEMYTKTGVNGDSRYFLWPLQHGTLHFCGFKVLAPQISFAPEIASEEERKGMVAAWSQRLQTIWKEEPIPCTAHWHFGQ

[2] = molecular target: T1, human QR2; assay: Steady-state kinetics, mechanism of inhibition of QR2; format: biochemical; details: fixed NMeH 100 μM, various menadione
[3] = molecular target: T1, human QR2; details: read-out: IC50 value, Mammalian cells; cytosolic fraction of mammalian cell lines overexpressing human QR2, dihydrobenzylnicotinamide as co-substrate; ref [37]; cited from earlier work
[4] = molecular target: T2, human QR2 (quinone reductase 2) (human), P16083; assay: crystal structure; details: remark: other sources report otherwise
T2 chain: T1 sequence (P16083 1-231)

h (Hill coefficient, a measure of the stoichiometry of binding) [1]: 0.8 | ΔG [1]: -8.5 ± 0.38 kcal/mol | −TΔS [1]: -0.65 ± 0.24 kcal/mol | ΔH [1]: -7.85 ± 0.62 kcal/mol | ΔH ([1]; listed as 2-iodomelatonin): -7.85 kcal/mol
Molecule: COc1ccc2[nH]c(I)c(CCNC(C)=O)c2c1 [2-Iodomelatonin]

h (Hill coefficient, a measure of the stoichiometry of binding) [1]: 0.8 | ΔG [1]: -8.07 ± 0.3 kcal/mol | −TΔS [1]: 2.38 ± 0.11 kcal/mol | ΔH [1]: -10.45 ± 0.4 kcal/mol | ΔH ([1]; listed as melatonin): -10.45 kcal/mol | Ki (uncompetitive against menadione) [2]: 92 µM and 91.6 ± 4.6 µM
Molecule: COc1ccc2[nH]cc(CCNC(C)=O)c2c1 [Melatonin]

Molecule: CC(=O)NCCc1c[nH]c2ccc(O)cc12 [N-Acetyl-5-hydroxytryptamine]
IC50 [3]: 99 ± 14 µM

h (Hill coefficient, a measure of the stoichiometry of binding) [1]: 0.9 | ΔG [1]: -9.8 ± 0.50 kcal/mol | −TΔS [1]: 5.01 ± 0.61 kcal/mol | ΔH [1]: -14.6 ± 0.15 kcal/mol
Molecule: Oc1ccc(/C=C/c2cc(O)cc(O)c2)cc1 [Resveratrol]

stoichiometry N [4]: 2
B1: human QR2 (quinone reductase 2), P16083 1-231 (enzyme)
chain: T1 sequence (P16083 1-231)
